Reference: patent publication US20110224276A1, “OPTICAL ISOMER OF PHENYLPROPIONIC ACID AND ITS MEDICINAL USE” (priority 2008, published 2011)
Several values for one entry are separate records, joined by “and”; a condition that tells them apart may be missing. Identical values can stand only once. Like-named read-outs stand apart in the source and are kept apart here.

What was measured:
[1] = test system: writhing in mice induced by acetic acid; assay: writhing in mice induced by acetic acid; assay type: in vivo; conditions: for ED50: Mus musculus, read-out: ED50 (mg/kg) of inhibition of writhing; for maximum inhibitory rate (%) on mouse writhing: ig 1 h before 0.6% acetic acid ip, maximum of three dose groups (30, 10, 3 mg/kg; R 90, 30, 10 mg/kg), n=10
Experimental: For each group, the required weights of drugs are weighted, and are milled with 0.5% CMC—Na to required concentration ready-for-use.
Each group of animals is fasted for 12 h, but drinking ad libitum. At 1 hour after intragastric administration of corresponding drugs, 0.6% acetic acid (0.2 ml/per) is intraperitoneally injected, and the number of writhing of mice in 15 min after injection are recored. The mice with waist muscle repeat shrinkage, bump back, rump torsion and posterior limb stretch are used as writhing positive animals. Inhibition rates of drugs on writhing are calculated based on the following formula:
Inhibition rate (%)=[(number of writhing of the control group−number of writhing of administrated group)/number of writhing of the control group]×100%
Inhibition rate of each dose-group on writhing (%) is obtained by means of above method. Fitting data of dosage (mg/kg) and corresponding inhibition rate (%) via Microsoft EXCEL software to get a trendline, so as to obtain the half-effective inhibiting dose (ED50) of each tested group on writhing.

[2] = test system: hot plate pain threshold of mice; assay: hot plate pain threshold of mice; assay type: in vivo; conditions: for pain threshold(s) 0 h: 0 h (base threshold before administration); for pain threshold(s) 0.5 h: 0.5 h after administration; for pain threshold(s) 1 h: 1 h after administration
Experimental: On the basis of preliminary test, 90 healthy Kunming species of Mus musculus albus are selected, female, weight 18˜22 g, […], and each group of 10 mice, said tested groups comprising:
Each group of animals is pasted for 12 h, but drinking ad libitum. Mice are placed on a homoiothermal hot plate (55±0.5[…]), and the time of occurrence of licking foot is recorded as pain threshold. Appropriate mice (whose reaction time of pain is less than 60 seconds) are selected and randomly divided into groups, and pain thresholds are measured twice before administration and the average value is used as base pain threshold. At 0.5 h and 1 hour after intragastric administration of corresponding drugs, the pain threshold of each mouse is measured (if there are no reaction of pain in 60 seconds, then the threshold is considered as 60 second).
Using Microsoft EXCEL software, the average value of pain threshold of each tested group and the average value of control group are performed t-test analysis, and P<0.05 is considered as statistically significant difference.

[3] = in vivo; conditions: mouse, in vivo, po
Description: (§1) Each tested group includes 5 dose-groups during the tests as follows:
(§2) Intragastric administration (ig)
(§3) (3) Observed periods: 14 days

[4] = test system: ICR mice; assay: in vivo; conditions: LD50 ig compared with S
Description: as §1, §2, §3

[5] = in vivo; conditions: mouse, in vivo, ip
Description: as §1
(§4) Intraperitoneal injection (ip)
(§5) (3) Observed periods: 14 days.

[6] = test system: ICR mice; assay: in vivo; conditions: LD50 ip compared with S
Description: as §1, §4, §5

[7] = background statement; cited from earlier work
[8] = pharmacokinetic study in rats of ig administration; assay type: in vivo
[9] = test system: hot plate pain threshold of mice; assay: hot plate pain threshold of mice; assay type: in vivo; conditions: 40 mg/kg ip, 0 h (base threshold before administration)
[10] = ig 50 mg/kg, individual animals A-F, listed as R-type isomer

| Compound | ED50 [1] | maximum inhibitory rate (%) on mouse writhing [1] | pain threshold(s) 0 h ([2]; 40 mg/kg ig) | pain threshold(s) 0.5 h ([2]; 40 mg/kg ig) | pain threshold(s) 1 h ([2]; 40 mg/kg ig) | pain threshold(s) 0 h ([2]; 80 mg/kg ig) | pain threshold(s) 0.5 h ([2]; 80 mg/kg ig) | pain threshold(s) 1 h ([2]; 80 mg/kg ig) | Com. Vs. S (multiple) [4] | Com. Vs. S (multiple) [6] | LD50 at 14 days ([3]; ICR) | LD50 at 14 days ([5]; ICR) | further results |
| --- | --- | --- | --- | --- | --- | --- | --- | --- | --- | --- | --- | --- | --- |
| CC(C(=O)O)c1ccc2c(c1)CC(=O)c1ccccc1S2 (racemic) [RS, 10,11-dihydro-alpha-methyl-10-oxo-dibenzo[b,f]tiazem-2-acetic acid, reference compound] | 9.2 mg/kg | 63.6% | 12.8 ± 3.7 s | 9.9 ± 2.7 s | 10.7 ± 5.7 s | 12.7 ± 3.1 s | 11.7 ± 5.2 s | 9.6 ± 3.5 s | 1.2 multiple | 1.3 multiple | – | – | LD50 at 14 days [3]: 327 ± 30.7 mg/kg; LD50 at 14 days [5]: 252 ± 18.9 mg/kg; abirritation, times more than Indomethacin, Diclofenac Sodium, Ketoprofen, mefenamic acid [7]: 3-28 times |
| C[C@@H](C(=O)O)c1ccc2c(c1)CC(=O)c1ccccc1S2 [R, R-10,11-dihydro-alpha-methyl-10-oxo-dibenzo[b,f]tiazem-2-acetic acid] | 25.4 mg/kg | 71.3% | 17.6 ± 13.8 s | 12.0 ± 7.8 s | – | 21.5 ± 15.5 s | – | 17.5 ± 12.3 s | 14.9 multiple | 3.7 multiple | 3990 ± 153 mg/kg | 744 ± 69.8 mg/kg | pain threshold(s) 0 h ([2]; 160 mg/kg ig): 22.0 ± 4.9 s; pain threshold(s) 0.5 h ([2]; 160 mg/kg ig): 24.1 ± 15.1 s; pain threshold(s) 1 h ([2]; 160 mg/kg ig): 27.3 ± 11.9 s; transformation between R-isomer and S-isomer during monitoring of blood drug level ([8]; ig): No transformation between R-isomer and S-isomer is detected; AUC(0-48) [8, 10]: 723.9 µg·h/mL and 239.0 µg·h/mL and 330.6 µg·h/mL and 814.3 µg·h/mL and 324.2 µg·h/mL and 1336.0 µg·h/mL; AUG(0-∞) [8, 10]: 772.8 mg/L*h and 337.7 mg/L*h and 818.7 mg/L*h and 325.6 mg/L*h and 1374.1 mg/L*h; CLz/F [8, 10]: 0.1 L/h/kg (3×) and 0.2 L/h/kg (2×) and 0.0 L/h/kg; Cmax [8, 10]: 260.8 µg/mL and 98.9 µg/mL and 67.8 µg/mL and 223.1 µg/mL and 131.5 µg/mL and 184.2 µg/mL; MRT(0-48) [8, 10]: 7.4 h and 2.2 h and 9.1 h and 5.4 h and 5.0 h and 10.3 h; Tmax [8, 10]: 1.0 h (2×) and 0.5 h (2×) and 0.3 h (2×); t1/2z [8, 10]: 10.0 h and 2.2 h and 9.8 h and 7.8 h and 4.9 h and 9.6 h; AUG(0-∞) Mean ([8]; ig 50 mg/kg, mean of A-F): 647.5 mg/L*h; CLz/F Mean ([8]; ig 50 mg/kg, mean of A-F): 1.7 mL/min/kg; t1/2z Mean ([8]; ig 50 mg/kg, mean of A-F): 7.4 h; AUC(0-t) ([8]; rat, plasma, po, 50 mg/kg, ig 50 mg/kg, mean of A-F, read-out: AUC(0-48) Mean): 628 µg·h/mL; Cmax ([8]; rat, plasma, po, 50 mg/kg, ig 50 mg/kg, mean of A-F, read-out: Cmax Mean): 161 µg/mL; MRT last ([8]; rat, plasma, po, 50 mg/kg, ig 50 mg/kg, mean of A-F, read-out: MRT(0-48) Mean): 6.6 h; Tmax ([8]; rat, plasma, po, 50 mg/kg, ig 50 mg/kg, mean of A-F, read-out: Tmax Mean): 0.6 h; Vd/F ([8]; rat, plasma, po, 50 mg/kg, ig 50 mg/kg, mean of A-F, read-out: Vz/F Mean): 1 L/kg; pain threshold(s) 0 h [9]: 15.2 ± 15.1 s |
| C[C@H](C(=O)O)c1ccc2c(c1)CC(=O)c1ccccc1S2 [S, S-10,11-dihydro-alpha-methyl-10-oxo-dibenzo[b,f]tiazem-2-acetic acid] | 8.6 mg/kg | 80.1% | 12.9 ± 5.0 s | 10.8 ± 2.7 s | 10.6 ± 4.6 s | 13.6 ± 9.6 s | 12.7 ± 6.9 s | 7.9 ± 1.8 s | 1.0 multiple | 1.0 multiple | 268 ± 22.2 mg/kg | 201 ± 14.3 mg/kg | – |
